Source: paper PMC6272185 (Molecules, 2015)
Converted amounts (≈) assume the structure as drawn. Where two headings read alike, the source gives them in different places.

Experiments:
[1] = test system: NO production by LPS-stimulated RAW 264.7 macrophages; experiment: Inhibition of NO production by LPS-stimulated macrophages (Griess); type: cell-based, murine; conditions: mean ± SD, n = 3
M. bovis BCG = experiment: microbe, parasite or virus in culture; type: cell-based, Mycobacterium bovis BCG; conditions: Mycobacterium tuberculosis variant bovis BCG, BCG, 168 h; for MIC50: read-out: MIC50 M. bovis BCG; for MIC90: read-out: MIC90 M. bovis BCG
[2] = test system: TNF-α production by LPS-stimulated RAW 264.7 macrophages; experiment: Inhibition of TNF-α production by LPS-stimulated macrophages (ELISA); type: cell-based, murine; conditions: for IC50: Mus musculus, RAW264.7, LPS (1 µg/mL)-stimulated RAW 264.7, 24 h, mean ± SD, n = 3, read-out: IC50 TNF-α; for inhibition of TNF-α: LPS-stimulated RAW 264.7
RAW 264.7 macrophages = experiment: Macrophage cytotoxicity, LDH release assay; type: cell-based, murine; conditions: LDH release
Method: (§4) Cytotoxic effects of chalcone samples on RAW 264.7 cell viability in cultures stimulated with LPS were determined using the LDH (lactate dehydrogenase) release assay as previously described [58]. Cytoplasmic enzyme LDH release into cell culture supernatants was detected using a commercial LDH kit (Doles, GO, Brazil). Cell death was expressed as percentage of LDH release, which was calculated using the following formula: percentage of LDH release = 100 × (test LDH release − spontaneous release)/(maximum release − spontaneous release). The maximum release was determined following dissolution of cell monolayers using 1% (vol/vol) Triton X-100. The spontaneous release was determined in supernatants from cultures incubated in the presence of LPS and DMSO, used as a solvent for chalcone samples.

[3] = Macrophage cytotoxicity, LDH release assay; type: cell-based, murine; conditions: mouse, RAW 264.7 macrophages stimulated with LPS; LPS-stimulated RAW 264.7, LDH release; mean ± SD, n = 3
Method: as §4

M. tuberculosis H37Rv = experiment: microbe, parasite or virus in culture; type: cell-based, Mycobacterium tuberculosis; conditions: Mycobacterium tuberculosis
[4] = test system: RAW 264.7 macrophages infected with M. tuberculosis H37Rv; experiment: Toxicity for infected macrophages, LDH assay; type: cell-based, murine; conditions: Mus musculus, RAW264.7, 96 h; infected RAW 264.7, 4 days treatment; Figure 3D
Method: Cytotoxic effects of chalcone samples on RAW 264.7 cell viability in cultures stimulated with LPS were determined using the LDH (lactate dehydrogenase) release assay as previously described. Cytoplasmic enzyme LDH release into cell culture supernatants was detected using a commercial LDH kit (Doles, GO, Brazil). Cell death was expressed as percentage of LDH release, which was calculated using the following formula: percentage of LDH release = 100 × (test LDH release − spontaneous release)/(maximum release − spontaneous release). The maximum release was determined following dissolution of cell monolayers using 1% (vol/vol) Triton X-100. The spontaneous release was determined in supernatants from cultures incubated in the presence of LPS and DMSO, used as a solvent for chalcone samples.
(§1) RAW 264.7 macrophages were plated (1 × 10^5 cells/well) in antibiotic-free DMEM-F12 medium supplemented with 10% fetal bovine serum and incubated for 24 h. Prior to infection, mycobacterial suspensions were sonicated for 1 minute to disperse clumps and optical densities were adjusted to 0.1. The macrophage cultures were infected at a MOI of 1:1 (macrophage: bacterium). Phagocytosis was allowed to progress for 3 h. After 3 h, extracellular mycobacteria were removed by washing with PBS 1X and the infected cell monolayers were treated for 4 days with chalcone samples or rifampicin. Macrophage viability was monitored by LDH assay and was over 80% in all experiments. On day 4 after infection, cells were lysed cells with 1% saponin to release intracellular bacteria. Lysate aliquots were diluted 10-fold in PBS, plated in triplicates on 7H10 agar plates and incubated at 37 °C. After 21 days, total CFU were determined.

M. tuberculosis M299 = experiment: microbe, parasite or virus in culture; type: cell-based, Mycobacterium tuberculosis; conditions: for MIC50 / MIC90: Mycobacterium tuberculosis, M299, 120 h
[5] = test system: M. tuberculosis strain H37Rv in RAW 264.7 macrophages; experiment: Intracellular growth of M. tuberculosis H37Rv in infected macrophages (CFU); type: cell-based, Mycobacterium tuberculosis; conditions: infected RAW 264.7, MOI 1:1, 4 days, Figure 3C; for MIC50: Mycobacterium tuberculosis, H37RV, 96 h
Method: as §1

[6] = test system: IL-1β production by LPS-stimulated RAW 264.7 macrophages; experiment: Inhibition of IL-1β production by LPS-stimulated macrophages (ELISA); type: cell-based, murine; conditions: for inhibition of IL-1β: LPS-stimulated RAW 264.7; for IC50: Mus musculus, RAW264.7, 24 h, read-out: IC50 IL-1β
Method: (§2) Murine RAW 264.7 macrophage cell line (American Type Culture Collection, Manassas, VA, USA), was cultured in Dulbecco’s modified Eagle’s medium (DMEM-F12) supplemented with 10% Fetal Bovine Serum (FBS) and gentamicin (50 µg/mL) in 5% CO2 atmosphere at 37 °C. For experiments, the cells were seeded in 96-well plates (1 × 10^5 cells/well) and incubated for 24 h at 37 °C. For macrophage stimulation, the cell cultures were treated with LPS (1 µg/mL) and incubated for additional 24 h in the presence or absence of the chalcone samples (samples 1–41) that were used at concentrations of 100, 20, 4 and 0.8 µg/mL. In some experiments, a nitric oxide (NO) inhibitor, L-NMMA (20 μg/mL), was used as a positive control of NO inhibition, and a non-steroidal anti-inflammatory drug indomethacin, known to inhibit production of prostaglandins, was used as a positive control of PGE2 inhibition.
(§3) The frozen culture supernatants samples were thawed and immediately analyzed using commercially available enzyme-linked immunosorbent assay (ELISA) kits to measure TNF-α, IL-1β (BD Biosciences) and PGE2 (R&D Systems, Minneapolis, MN, USA), according to the manufacturer’s instructions. Standard curves for each mediator were generated using reference cytokine concentrations supplied by the manufacturer. Nitric oxide (NO) generation was assessed by the Griess method to measure nitrites, which are stable breakdown NO products.

[7] = test system: PGE2 production by LPS-stimulated RAW 264.7 macrophages; experiment: Inhibition of PGE2 production by LPS-stimulated macrophages (ELISA); type: cell-based, murine; conditions: Mus musculus, RAW264.7, 24 h, read-out: IC50 PGE2
Method: as §2, §3

[8] = test system: iNOS expression in RAW 264.7 macrophages; experiment: iNOS expression by western blot in LPS-stimulated macrophages; type: cell-based, murine; conditions: 20 µg/mL, LPS 1 µg/mL, 24 h
Method: RAW 264.7 macrophages were plated in Petri dishes (2 × 10^7 cells·mL^−1) and incubated for 24 h at 37 °C in 5% CO2 atmosphere. […] The resulted cellular monolayers were washed with PBS 1×, scraped and resuspended in PBS 1×, transferred and centrifuged to obtain cell pellets. The cells were lysed in buffer (10% SDS, 20% glycerol, 5% 2-mercaptoethanol, 2% bromophenol blue and 1 M Tris HCl, pH 6.8, containing protease inhibitors). Protein concentrations were estimated by Bradford method. For western blot analysis, cellular extract samples (60 µg) were submitted to 10% SDS–polyacrylamide gel electrophoresis under […] conditions and transferred to nitrocellulose membranes (Amersham Pharmacia Biotech, Uppsala, Sweden). After blocking with PBS-T (0.5% Tween-20) containing 2.5% (w/v) bovine serum albumin, the membranes were incubated with antibodies against iNOS (1:1000) and COX-2 (1:500) for 1 h at room temperature. After incubation period, the membranes were washed followed by treatment with horseradish peroxidase-conjugated secondary antibody. The resulting membranes were developed using diaminobenzidine/H2O2 as a substrate for peroxidase. In all electrophoresis experiments, a protein standard ladder (Full Range Rainbow-GE Healthcare, Piscataway, NJ, USA) was used to estimate proteins molecular size. Protein bands densitometric analysis was performed using ImageJ software for Windows (NIH, Bethesda, MD, USA). The value for stimulated condition (LPS- treated cells) was set as 1 and other conditions were recalculated correspondingly to allow ratio comparisons.

[9] = Mus musculus, RAW264.7, 24 h, LPS (1 µg/mL)-stimulated RAW 264.7, 24 h, read-out: IC50 NO
[10] = H37RV, 120 h, read-out: MIC50 M. tuberculosis H37Rv
[11] = Table 5, same values as M. tuberculosis H37Rv in Table 3, read-out: MIC50
[12] = LPS (1 µg/mL)-stimulated RAW 264.7, 24 h, read-out: IC50 NO
[13] = Mus musculus, RAW264.7, 24 h, read-out: IC50 NO, LPS (1 µg/mL)-stimulated RAW 264.7, 24 h

## O=C(/C=C/c1ccc(Cl)cc1)c1ccc(Br)cc1 [Chalcone 10]
[1]; [9]
  IC50: 68.9 ± 4.3 µM
M. bovis BCG
  MIC50: 22.3 ± 6.3 µM (≈ 7.17 µg/mL)
  MIC90: 288 ± 3.2 µM (≈ 92.6 µg/mL)
[2]
  IC50: > 311 µM
RAW 264.7 macrophages
  cytotoxicity profile: worst cytotoxicity profiles
[3]
  IC50: 113.4 ± 0.5 µM

## O=C(/C=C/c1ccc(F)cc1)c1ccc(Br)cc1 [Chalcone 9]
M. tuberculosis H37Rv; H37RV, 120 h
  MIC90: 252 ± 2.7 µM (≈ 76.9 µg/mL)
M. tuberculosis H37Rv; [10]
  MIC50: 24.4 ± 4.5 µM (≈ 7.45 µg/mL)
M. tuberculosis H37Rv; [11]
  MIC50: 24.4 ± 4.5 µM (≈ 7.45 µg/mL)
[1]; [9]
  IC50: > 328 µM
M. bovis BCG
  MIC50: 35.8 ± 3.9 µM (≈ 10.9 µg/mL)
  MIC90: 309 ± 5.3 µM (≈ 94.2 µg/mL)
[2]
  IC50: > 328 µM
[3]
  IC50: > 328 µM
[4]
  IC50: > 321 µM
M. tuberculosis M299
  MIC50: 53.6 ± 1.9 µM (≈ 16.3 µg/mL)
  MIC90: 313 ± 1.4 µM (≈ 95.5 µg/mL)
[5]
  MIC50: 12 ± 1.1 µM (≈ 3.66 µg/mL)

## CN(C)c1ccc(/C=C/C(=O)c2ccc(Br)cc2)cc1 [Chalcone 11]
[1]; [9]
  IC50: 41.3 ± 3.5 µM
M. bovis BCG
  MIC50: 67.8 ± 3.8 µM (≈ 22.4 µg/mL)
  MIC90: 242 ± 2.6 µM (≈ 79.9 µg/mL)
[2]
  IC50: > 303 µM
RAW 264.7 macrophages
  cytotoxicity profile: worst cytotoxicity profiles
[3]
  IC50: 132 ± 2.9 µM

## COc1ccc(C(=O)/C=C/c2ccccc2)cc1 [Chalcone 24]
M. tuberculosis H37Rv; H37RV, 120 h
  MIC90: 375 ± 6.8 µM (≈ 89.3 µg/mL)
M. tuberculosis H37Rv; [10]
  MIC50: 25.3 ± 5.2 µM (≈ 6.03 µg/mL)
M. tuberculosis H37Rv; [11]
  MIC50: 25.3 ± 5.2 µM (≈ 6.03 µg/mL)
[1]; [12]
  IC50: 21.3 ± 4.5 µM
[1]; [13]
  IC50: < 21 µM
[6]
  inhibition of IL-1β: potent inhibitors
  IC50: 56.6 ± 3.5 µM
M. bovis BCG
  MIC50: 31.5 ± 5.9 µM (≈ 7.51 µg/mL)
  MIC90: 399 ± 6.9 µM (≈ 95.1 µg/mL)
[7]
  IC50: 90 ± 3.4 µM
[2]
  inhibition of TNF-α: strongly inhibit
  IC50: 78.8 ± 6.5 µM
[3]
  IC50: 245 ± 4.5 µM
[4]
  IC50: 319 ± 4.6 µM
M. tuberculosis M299
  activity against M299 compared with H37Rv: significantly less potent
  MIC50: > 420 µM
  MIC90: > 420 µM
[5]
  MIC50: 42.6 ± 3.1 µM (≈ 10.2 µg/mL)

## CN(C)c1ccc(/C=C/C(=O)c2ccccc2)cc1 [Chalcone 4]
M. tuberculosis H37Rv; H37RV, 120 h
  MIC90: 320 ± 4.8 µM (≈ 80.5 µg/mL)
M. tuberculosis H37Rv; [10]
  MIC50: 19.7 ± 1.9 µM (≈ 4.95 µg/mL)
M. tuberculosis H37Rv; [11]
  MIC50: 19.7 ± 1.9 µM (≈ 4.95 µg/mL)
[1]; [12]
  IC50: 12 ± 2.2 µM
[1]; [13]
  IC50: < 21 µM
[8]
  inhibition of iNOS expression: almost completely inhibit
[6]
  inhibition of IL-1β: potent inhibitors
  IC50: 116 ± 5.5 µM
M. bovis BCG
  MIC50: 14.3 ± 5.8 µM (≈ 3.59 µg/mL)
  MIC90: 137 ± 7.9 µM (≈ 34.5 µg/mL)
[7]
  IC50: 61.2 ± 0.5 µM
[2]
  inhibition of TNF-α: strongly inhibit
  IC50: 66.9 ± 4.3 µM
[3]
  IC50: 348 ± 5.1 µM
[4]
  IC50: 374 ± 6.3 µM
M. tuberculosis M299
  MIC50: 20.1 ± 1 µM (≈ 5.05 µg/mL)
  MIC90: 351.5 ± 1.8 µM (≈ 88.3 µg/mL)
[5]
  MIC50: 4.2 ± 0.3 µM (≈ 1.06 µg/mL)
  MIC50 intracellular M. tuberculosis H37Rv: 4.2 ± 0.3 µM (≈ 1.06 µg/mL)

## COc1ccc(C(=O)/C=C/c2ccccc2Cl)cc1 [Chalcone 30]
[1]; [9]
  IC50: 23.9 ± 4.8 µM
M. bovis BCG
  MIC50: 37.8 ± 6.4 µM (≈ 10.3 µg/mL)
  MIC90: 329 ± 3.6 µM (≈ 89.6 µg/mL)
[2]
  IC50: > 367 µM
RAW 264.7 macrophages
  cytotoxicity profile: worst cytotoxicity profiles
[3]
  IC50: 100 ± 5.1 µM
